# Assay results taken from patent US20230147962A1, “FIBROBLAST ACTIVATION PROTEIN LIGANDS FOR TARGETED DELIVERY APPLICATIONS” (PHILOCHEM AG, priority 2020, published 2023).
# *1 amine or outer side, *2 acyl side, *3 side chain or, on linkers, in order; H or OH if unused. Where a SMILES comes first, the peptide text is derived from it. The star is where a group is joined. Fluorescein(5-Mal) = O=C1OC2(c3ccc(O)cc3Oc3cc(O)ccc32)c2ccc(N3C(=O)CC(*)C3=O)cc21; X1 = N#C[C@@H]1CC(F)(F)CN1C(=O)CNC(=O)c1ccnc2c(N*)cccc12; Suc = O=C(CCC(=O)[*:2])[*:1]
# Key:
# SK-RC-52 Wild type = test: Confocal microscopy on SK-RC-52 wild type; format: cell-based; conditions: negative control cells
# Method: SK-RC-52.hFAP and SK-RC-52 cells were seeded into 4-well cover slip chamber plates at a density of 10^4 cells per well in RPMI medium (1 mL) supplemented with 10% FCS, AA and HEPES (10 mM) and allowed to grow for 24 hours under standard culture conditions. Hoechst 33342 nuclear dye was used to stain nuclear structures.
# (§1) The culture medium was replaced with fresh medium containing conjugate 15 (100 nM). Randomly selected colonies imaged on a SP8 confocal microscope equipped with an AOBS device (Leica Microsystems).
# hFAP = biological target: T1, hFAP (Homo sapiens, UniProt Q12884); test: Chromatographic co-elution (PD-10) of ligand-protein complexes, hFAP; format: binding; conditions: PD-10 column, hFAP 2 μM
# T1 construct: made in house; host or cells: CHO cells, transient gene expression, purified from supernatant
# T1 sequence (Q12884 with tags, fused parts or gaps): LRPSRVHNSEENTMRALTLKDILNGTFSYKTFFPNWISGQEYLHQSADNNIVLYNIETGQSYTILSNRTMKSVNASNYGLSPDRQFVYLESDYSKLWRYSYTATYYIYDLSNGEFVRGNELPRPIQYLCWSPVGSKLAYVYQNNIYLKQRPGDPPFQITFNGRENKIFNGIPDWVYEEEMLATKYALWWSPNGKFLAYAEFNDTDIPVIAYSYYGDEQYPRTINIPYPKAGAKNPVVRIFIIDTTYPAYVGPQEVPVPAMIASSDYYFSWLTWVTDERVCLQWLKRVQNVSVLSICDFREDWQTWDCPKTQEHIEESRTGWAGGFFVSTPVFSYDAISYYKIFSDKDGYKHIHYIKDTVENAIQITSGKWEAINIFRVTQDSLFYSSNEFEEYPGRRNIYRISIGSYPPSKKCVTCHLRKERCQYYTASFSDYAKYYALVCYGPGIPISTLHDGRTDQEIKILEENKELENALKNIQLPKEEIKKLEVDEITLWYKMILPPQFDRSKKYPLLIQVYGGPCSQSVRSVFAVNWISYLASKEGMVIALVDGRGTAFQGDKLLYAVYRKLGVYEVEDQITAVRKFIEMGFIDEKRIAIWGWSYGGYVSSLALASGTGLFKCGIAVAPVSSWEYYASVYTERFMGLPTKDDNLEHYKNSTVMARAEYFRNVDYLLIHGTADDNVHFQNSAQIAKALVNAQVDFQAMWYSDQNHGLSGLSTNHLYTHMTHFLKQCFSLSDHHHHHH
# Method: A PD-10 column was pre-equilibrated with assay buffer (50 mM Tris, 100 mM NaCl, 1 mM EDTA, pH=7.4) prior to the loading of the complex. Human FAP (2 μM) and fluorescein-labeled binders (6 μM) were incubated for 30 min at 37° C. in the dark. The mixture was loaded and the column was flushed using the assay buffer. The flow through was collected in 96-well plates and the fluorescence was measured immediately on a TECAN microtiter plate reader, monitoring the fluorescence at an excitation wavelength of 485 nm and an emission wavelength of 535 nm. The protein quantities were estimated by measuring the absorbance at 280 nm using a Nanodrop 2000/2000c spectrophotometer.
# (§2) A PD-10 column was pre-equilibrated with assay buffer (50 mM Tris, 100 mM NaCl, 1 mM EDTA, pH=7.4) prior to the loading of the complex. A mixture of different proteins (hFAP=2 μM, mFAP=5 μM) and conjugate 15 (100 nM) were incubated and loaded on the column. The mixture was flushed using the assay buffer. The flow through was collected in 96-well plates and the fluorescence intensity was measured immediately on a TECAN microtiter plate reader, monitoring the fluorescence at an excitation wavelength of 485 nm and an emission wavelength of 535 nm. The concentration of the proteins was estimated by measuring the absorbance at 280 nm using a Nanodrop 2000/2000c spectrophotometer.
# [1] = test system: SK-RC-52.hFAP renal cell carcinoma xenografts; test: Ex vivo targeting experiment, SK-RC-52.hFAP xenografts; format: in vivo, BALB/C nu/nu mice; conditions: 40 nmol intravenous, ex vivo organ images 1 h
# Method: SK-RC-52.hFAP cells were grown to 80% confluence and detached with Trypsin-EDTA 0.05%. Cells were re-suspended in HBSS medium to a final concentration of 5×10^7 cells/mL.
# Mice bearing subcutaneous SK-RC-52.hFAP tumour was injected intravenously with conjugate 15 (40 nmol in sterile PBS, pH 7.4). Animals were sacrificed by CO2 asphyxiation 1h after the intravenous injection and the organs and the tumour were excised, snap-frozen in OCT medium and stored at −80° C. Cryostat sections ([…]) were cut and nuclei were stained with Fluorescence Mounting Medium (Dako Omnis, Agilent). Images were obtained using an Axioskop2 mot plus microscope (Zeiss) and analyzed by ImageJ 1.53 software.
# mFAP = biological target: T2, mFAP (Mus musculus, UniProt P97321); test: Chromatographic co-elution (PD-10) of ligand-protein complexes, mFAP; format: binding, murine; conditions: PD-10 column, mFAP 5 μM
# T2 sequence (P97321 1-761): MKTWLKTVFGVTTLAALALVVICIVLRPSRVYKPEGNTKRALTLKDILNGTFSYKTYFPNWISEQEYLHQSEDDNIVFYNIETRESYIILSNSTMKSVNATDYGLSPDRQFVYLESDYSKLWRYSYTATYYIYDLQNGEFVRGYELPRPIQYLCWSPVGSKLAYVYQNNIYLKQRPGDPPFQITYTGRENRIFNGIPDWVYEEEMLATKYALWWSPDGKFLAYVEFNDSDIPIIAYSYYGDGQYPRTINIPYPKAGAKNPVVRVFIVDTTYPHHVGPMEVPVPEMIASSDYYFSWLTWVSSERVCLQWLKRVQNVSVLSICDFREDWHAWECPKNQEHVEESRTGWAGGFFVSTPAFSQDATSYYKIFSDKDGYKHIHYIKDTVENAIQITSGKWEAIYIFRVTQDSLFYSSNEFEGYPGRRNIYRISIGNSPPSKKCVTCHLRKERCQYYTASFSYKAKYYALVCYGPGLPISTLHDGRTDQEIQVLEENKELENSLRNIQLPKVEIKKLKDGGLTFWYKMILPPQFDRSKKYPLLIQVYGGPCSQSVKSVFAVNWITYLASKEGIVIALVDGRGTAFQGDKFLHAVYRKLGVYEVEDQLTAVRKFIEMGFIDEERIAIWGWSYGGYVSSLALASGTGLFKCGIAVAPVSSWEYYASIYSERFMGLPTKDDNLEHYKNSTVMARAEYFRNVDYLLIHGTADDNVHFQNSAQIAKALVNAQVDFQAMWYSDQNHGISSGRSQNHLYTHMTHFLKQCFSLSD
# Method: as §2
# HT-1080 Wild type = test: Confocal microscopy on HT-1080 wild type; format: cell-based; conditions: negative control cells
# Method: HT-1080.hFAP and HT-1080 cells were seeded into 4-well cover slip chamber plates at a density of 10^4 cells per well in DMEM medium (1 mL) supplemented with 10% FCS, AA and HEPES (10 mM) and allowed to grow for 24 hours under standard culture conditions. Hoechst 33342 nuclear dye was used to stain nuclear structures.
# as §1
smiles,measurement,setting,value
"N#C[C@@H]1CC(F)(F)CN1C(=O)CNC(=O)c1ccnc2c(NC(=O)CCC(=O)N[C@@H](CC(=O)O)C(=O)N[C@@H](CCCCN)C(=O)N[C@@H](CC(=O)O)C(=O)N[C@@H](CSC3CC(=O)N(c4ccc5c(c4)C(=O)OC54c5ccc(O)cc5Oc5cc(O)ccc54)C3=O)C(=O)O)cccc12 (stereo partly drawn) [Conjugate 15, (2R,5S,8S,11S)-8-(4-aminobutyl)-5,11-bis(carboxymethyl)-16-((4-((2-((S)-2-cyano-4,4-difluoropyrrolidin-1-yl)-2-oxoethyl)carbamoyl)quinolin-8-yl)amino)-2-(((1-(3′,6′-dihydroxy-3-oxo-3H-spiro[isobenzofuran-1,9′-xanthen]-5-yl)-2,5-dioxopyrrolidin-3-yl)thio)methyl)-4,7,10,13,16-pentaoxo-3,6,9,12-tetraazahexadecanoic acid] ({X1-Suc}-DKDC(Fluorescein(5-Mal))-OH)",accumulation on SK-RC-52 Wild type cells,SK-RC-52 Wild type,no accumulation on the cell membrane
same,complex formation with hFAP in PD-10 co-elution,hFAP,stable complex is formed
same,targeting performance in SK-RC-52.hFAP xenografts,[1],"rapidly and homogeneously localizes at the tumour site in vivo 1 hour after the intravenous injection, with a high tumour-to-organs selectivity"
same,complex formation with mFAP in PD-10 co-elution,mFAP,stable complex is formed
same,accumulation on HT-1080 Wild type cells,HT-1080 Wild type,no accumulation on the cell membrane and in the cytosol
